# Data: patent publication US20240246920A1, “TRIAZOLE DERIVATIVES WITH ANTIFUNGAL ACTIVITY” (King's College London, priority 2020, published 2024)
# Read-outs that look alike come from different tables or passages of the source.
# Key:
# C. albicans NCPF3281 = experiment: Candida panel MIC, serial dilution in 96-well plates; format: cell-based, Candida albicans; settings: NCPF3281, read-out: MIC C. albicans NCPF3281
# Experimental: (§1) The minimum inhibitory concentration of test compounds were determined in a panel of Candida species (see Table 4 below), using the a serial dilution method in 96-well plates using the following protocol.
# (§2) Starter cultures of fungal strains to be tested were grown in 3 mL of RPMI 2% glucose media incubated at 37° C. with shaking at 200 rpm overnight. The culture media used was 900 mL H2O; 10.4 g RPMI 1640 (with L-glutamine and a pH indicator but without bicarbonate); 34.5 g MOPS and 18 g glucose. The pH of the media was adjusted to 7.0 with 1 M sodium hydroxide.
# (§3) Solutions of the compound to be tested were prepared by dissolving the compound in DMSO and subsequently into media to the desired concentrations. 200 μL of compound solution was then added to the wells of the 96-well plate using a serial dilution method row-by row of the plate to give a compound concentration gradient across the plate of from 128 μg/mL to 0.25 μg/mL. The last two rows of each plate were control rows containing the culture media alone and the media plus fungi.
# (§4) The fungi starter cultures were diluted 1:10 in water in cuvettes. This was then further diluted to an optical density (OD600) of 0.01 in media. 100 μL of the fungi was added to each well giving a starting concentration of fungus of 0.5-5×10^5/mL. One species of fungus was used on each plate. The plates were then held at 37° C. for 24 hours.
# (§5) A plate reader was used to measure growth in each well at OD530 nm and the MIC was determined for each test compound. The MIC is defined as the lowest concentration giving rise to inhibition of ≥50% of that of the drug-free control well containing the fungus and media.
# C. glabrata NCPF8018 = experiment: as above; format: cell-based, Candida glabrata; settings: Nakaseomyces glabratus
# Experimental: as §1, §2
# (§6) Solutions of the compound to be tested were prepared by dissolving the compound in DMSO and subsequently into media to the desired concentrations. […] The last two rows of each plate were control rows containing the culture media alone and the media plus fungi.
# as §4, §5
# C. krusei NCPF3876 = experiment: microbe, parasite or virus in culture; format: cell-based, Candida krusei; settings: Pichia kudriavzevii
# Experimental: as §1, §2, §6, §4, §5
# C. parapsilosis NCPF3209 = experiment: microbe, parasite or virus in culture; format: cell-based, Candida parapsilosis; settings: Lodderomyces parapsilosis
# Experimental: as §1, §2, §6, §4, §5
# Candida auris TDG2211 = experiment: microbe, parasite or virus in culture; format: cell-based; settings: Candidozyma auris, TDG2211; Table 4, extended panel; 24 hours, ≥50% inhibition; read-out: MIC Candida auris TDG2211
# Experimental: as §1, §2, §6, §4, §5
# (§7) The Candida auris strains shown in Table 7 were either taken from the National Collection of Pathogenic Fungi (NCPF) or collected as part of ongoing surveillance studies. The strains were characterised as follows.
# Candida auris TDG2506 = experiment: microbe, parasite or virus in culture; format: cell-based; settings: Candidozyma auris, TDG2506; Table 4, extended panel; 24 hours, ≥50% inhibition; read-out: MIC Candida auris TDG2506
# Experimental: as §1, §2, §6, §4, §5, §7
# C. auris TDG1912 = experiment: Candida panel MIC, serial dilution in 96-well plates; format: cell-based; settings: Candidozyma auris, TDG1912; Table 4; 24 hours, ≥50% inhibition; read-out: MIC C. auris TDG1912
# Experimental: as §1, §2, §3, §4, §5
# C. tropicalis NCPF8760 = experiment: as above; format: cell-based
# Experimental: as §1, §2, §3, §4, §5
# Candida auris TDG1102 = experiment: as above; format: cell-based; settings: Candidozyma auris, TDG1102; Table 4, extended panel; 24 hours, ≥50% inhibition; read-out: MIC Candida auris TDG1102
# Experimental: as §1, §2, §3, §4, §5
# Candida auris TDG2512 = experiment: as above; format: cell-based; settings: Candidozyma auris, TDG2512; Table 4, extended panel; 24 hours, ≥50% inhibition; read-out: MIC Candida auris TDG2512
# Experimental: as §1, §2, §3, §4, §5
# C. auris 8971 = experiment: as above; format: cell-based, Candida auris; settings: Candidozyma auris, 8971; Table 4, extended panel; 24 hours, ≥50% inhibition; read-out: MIC C. auris 8971
# Experimental: as §1, §2, §6, §4, §5, §7
# C. auris 8977 = experiment: as above; format: cell-based, Candida auris; settings: Candidozyma auris, 8977; Table 4, extended panel; 24 hours, ≥50% inhibition; read-out: MIC C. auris 8977
# Experimental: as §1, §2, §6, §4, §5, §7
# C. auris 8984 = experiment: as above; format: cell-based, Candida auris; settings: Candidozyma auris, 8984; Table 4, extended panel; 24 hours, ≥50% inhibition; read-out: MIC C. auris 8984
# Experimental: as §1, §2, §6, §4, §5, §7
# C. albicans 3363 = experiment: Candida albicans panel MIC; format: cell-based; settings: Table 6, Candida albicans panel
# Experimental: as §1, §2, §3, §4, §5
# (§8) The compounds shown in Table 6 were tested against a further panel of Candida albicans.
# C. albicans 3645 = experiment: Candida albicans panel MIC; format: cell-based; settings: Table 6, Candida albicans panel
# Experimental: as §1, §2, §3, §4, §5, §8
# C. albicans 3880 = experiment: Candida albicans panel MIC; format: cell-based; settings: Table 6, Candida albicans panel
# Experimental: as §1, §2, §3, §4, §5, §8
# C. albicans 3881 = experiment: Candida albicans panel MIC; format: cell-based; settings: Table 6, Candida albicans panel
# Experimental: as §1, §2, §3, §4, §5, §8
# C. albicans 3882 = experiment: Candida albicans panel MIC; format: cell-based; settings: Table 6, Candida albicans panel
# Experimental: as §1, §2, §3, §4, §5, §8
# C. albicans 3990 = experiment: Candida albicans panel MIC; format: cell-based; settings: Table 6, Candida albicans panel
# Experimental: as §1, §2, §3, §4, §5, §8
# C. albicans 8112 = experiment: Candida albicans panel MIC; format: cell-based; settings: Table 6, Candida albicans panel
# Experimental: as §1, §2, §3, §4, §5, §8
# [1] = Candida albicans, Table 4, common panel, 24 hours, ≥50% inhibition
# [2] = Table 6, Candida albicans panel
# [3] = NCPF8018, Table 4, common panel, 24 hours, ≥50% inhibition, read-out: MIC C. glabrata NCPF8018
# [4] = NCPF3876, Table 4, common panel, 24 hours, ≥50% inhibition, read-out: MIC C. krusei NCPF3876
# [5] = NCPF3209, Table 4, common panel, 24 hours, ≥50% inhibition, read-out: MIC C. parapsilosis NCPF3209
# [6] = NCPF8760, Table 4, common panel, 24 hours, ≥50% inhibition, read-out: MIC C. tropicalis NCPF8760
# [7] = NCPF8018, read-out: MIC C. Glabrata NCPF8018
# [8] = NCPF3876, read-out: MIC C. Krusei NCPF3876
# [9] = NCPF3209, read-out: MIC C. Parapsilosis NCPF3209
# [10] = NCPF8760, read-out: MIC C. Tropicalis NCPF8760
Compound,MIC (C. albicans NCPF3281; [1]) [µg/mL],MIC (C. albicans NCPF3281; [2]) [µg/mL],MIC (C. glabrata NCPF8018; [3]) [µg/mL],MIC (C. krusei NCPF3876; [4]) [µg/mL],MIC (C. parapsilosis NCPF3209; [5]) [µg/mL],MIC (Candida auris TDG2211) [µg/mL],MIC (Candida auris TDG2506) [µg/mL],MIC (C. auris TDG1912) [µg/mL],MIC (C. tropicalis NCPF8760; [6]) [µg/mL],MIC (Candida auris TDG1102) [µg/mL],MIC (Candida auris TDG2512) [µg/mL],MIC (C. auris 8971) [µg/mL],MIC (C. auris 8977) [µg/mL],MIC (C. auris 8984) [µg/mL],MIC (C. albicans 3363) [µg/mL],MIC (C. albicans 3645) [µg/mL],MIC (C. albicans 3880) [µg/mL],MIC (C. albicans 3881) [µg/mL],MIC (C. albicans 3882) [µg/mL],MIC (C. albicans 3990) [µg/mL],other results
"OC(CN1CCC(Nc2ccc(Cc3ccccc3)cc2)CC1)(Cn1cncn1)c1ccc(F)cc1F (stereo not shown) [Example 11, 1-(4-((4-benzylphenyl)amino)piperidin-1-yl)-2-(2,4-difluorophenyl)-3-(1H-1,2,4-triazol-1-yl)propan-2-ol]",≤ 0.125,≤ 0.00098,≤ 0.125,≤ 0.125,≤ 0.125,≤ 0.125,≤ 0.125,0.125,≤ 0.125,≤ 0.125,≤ 0.125,≤ 0.125,≤ 0.125,≤ 0.125,0.0156,0.00391,0.0313,0.0313,0.0625,0.0039 to 0.0625,MIC (C. albicans 8112): 0.00195 µg/mL
"OC(CN1CCC(N2CCC(Nc3ccc(Cc4ccccc4)cc3)CC2)CC1)(Cn1cncn1)c1ccc(F)cc1F (stereo not shown) [Example 12, 1-(4-((4-benzylphenyl)amino)-[1,4′-bipiperidin]-1′-yl)-2-(2,4-difluorophenyl)-3-(1H-1,2,4-triazol-1-yl)propan-2-ol]",≤ 0.125,0.002 to 0.004,0.125,≤ 0.125,≤ 0.125,≤ 0.125,≤ 0.125,0.125,≤ 0.125,≤ 0.125,≤ 0.125,≤ 0.125,≤ 0.125,≤ 0.125,0.0625,0.00391,0.0313,0.0625,0.0625,0.0313,MIC (C. glabrata NCPF8018; [7]): 0.25 µg/mL; MIC (C. krusei NCPF3876; [8]): ≤ 0.125 µg/mL; MIC (C. parapsilosis NCPF3209; [9]): ≤ 0.125 µg/mL; MIC (C. tropicalis NCPF8760; [10]): ≤ 0.125 µg/mL; MIC (C. albicans 8112): 0.00391 µg/mL
"OC(CN1CCC2(CCC(Nc3ccc(Cc4ccccc4)cc3)CC2)C1)(Cn1cncn1)c1ccc(F)cc1F (stereo not shown) [Example 13, 1-(8-((4-benzylphenyl)amino)-2-azaspiro[4.5]decan-2-yl)-2-(2,4-difluorophenyl)-3-(1H-1,2,4-triazol-1-yl)propan-2-ol]",≤ 0.125,≤ 0.00098,0.25,≤ 0.125,≤ 0.125,≤ 0.125,≤ 0.125,0.25,≤ 0.125,≤ 0.125,≤ 0.125,≤ 0.125,≤ 0.125,≤ 0.125,0.125,0.00781,0.25,0.25,0.0313 to 2,0.0625,MIC (C. albicans 8112): 0.00049 to 0.00391 µg/mL
OC(CN1CCC(Nc2ccc(OCc3ccccc3)cc2)CC1)(Cn1cncn1)c1ccc(F)cc1F (stereo not shown) [Example 90],0.00391,0.00391,0.0625,0.0313,0.00391,0.003,0.003,–,0.0625,0.0156,0.00391,0.003,0.00781,0.003,0.008 to 0.03,0.00391,0.00391,0.0078 to 0.0313,0.00391,0.0039,MIC (C. glabrata NCPF8018; [7]): 0.0625 µg/mL; MIC (C. krusei NCPF3876; [8]): 0.0313 µg/mL; MIC (C. parapsilosis NCPF3209; [9]): 0.00391 µg/mL; MIC (C. tropicalis NCPF8760; [10]): 0.0625 µg/mL; MIC (C. albicans 8112): 0.00391 µg/mL
OC(CN1CCC(N2CCC(Nc3ccc(OCCN4CCOCC4)cc3)CC2)CC1)(Cn1cncn1)c1ccc(F)cc1F (stereo not shown) [Example 92],2,–,> 32,> 32,2 to 8,8 to 32,32,32,> 32,32,4,16,8,32,–,–,–,–,–,–,–
COCCOc1ccc(NC2CCN(CC(O)(Cn3cncn3)c3ccc(F)cc3F)CC2)cc1 (stereo not shown) [Example 96],0.0078 to 0.0156,–,4,0.5,0.0156,0.0156 to 0.06,0.06,0.125,1,0.06,4,0.06,0.06,0.25,–,–,–,–,–,–,–
CN1CCC(Oc2ccc(NC3CCN(CC(O)(Cn4cncn4)c4ccc(F)cc4F)CC3)cc2)CC1 (stereo not shown) [Example 98],0.125,–,8,8,0.125,> 8,> 8,> 8,> 8,> 8,2,8,8,> 8,–,–,–,–,–,–,–
Cc1ccc(-c2ccc(NC3C[C@@H]4CN(CC(O)(Cn5cncn5)c5ccc(F)cc5F)C[C@@H]4C3)cc2)cc1F (stereo partly shown) [Example 99],≤ 0.03,–,8,1,≤ 0.03,0.125 to 16,32,16,> 32,16 to 32,0.5,1 to 4,1 to 4,32,–,–,–,–,–,–,–
OC(CN1C[C@H]2CC(Nc3ccc(N4CCCCC4)cc3)C[C@H]2C1)(Cn1cncn1)c1ccc(F)cc1F (stereo partly shown) [Example 100],≤ 0.03,–,2,2,≤ 0.03,2,4,8,8,16,0.25,1,2,4,–,–,–,–,–,–,–
OC(CN1C[C@H]2CC(Nc3ccc(F)cc3)C[C@H]2C1)(Cn1cncn1)c1ccc(F)cc1F (stereo partly shown) [Example 101],≤ 0.03,–,0.5,1,≤ 0.03,0.125 to 2,4,1,4,2,0.125,0.25,0.25,4,–,–,–,–,–,–,–
